Assay results from the NIST ThermoML archive (doi:10.1016/j.jct.2018.07.025).
Numbers after ± are expanded uncertainties.

Key:
[1] = Molar enthalpy of transition or fusion; details: Crystal; DSC
[2] = Crystal; DTA

Compound	Molar enthalpy of transition or fusion [1] [kJ/mol]	Normal melting temperature [2] [°C]
COC(=O)N(O)c1ccccc1COc1ccn(-c2ccc(Cl)cc2)n1	51.5 ± 1.3	143.30 ± 1.1
COC(=O)N(OC)c1ccccc1COc1ccn(-c2ccc(Cl)cc2)n1 [Pyraclostrobin]	30.2 ± 1	60.60 ± 1.1
